Patent US20100040565A1, “ACTIVE DELIVERY SYSTEMS FORMULATIONS” (Castle Beach, LLC, priority 2008, published 2010)

How the values were obtained:
[1] = assay type: physicochemical
Method: DEET is incorporated into the pores, if any present, and onto the surfaces of a carrier. The evaporation rate of DEET from a thin film was then measured by weight. The film was smeared onto a glass slide and its weight was measured as a function of time. The initial weight of the film was 0.0231 grams and the area that was covered was […] (thickness ca 10 microns). The weight of the film leveled off at 0.019 grams when the DEET was fully evaporated, approximately 36 hours after application. Half of the DEET, about 2 milligrams on 3 square inches, remained 16 hours after application.

[2] = Behaviour of the permethrin-on-carrier formulation on substrates (activity duration, spreading, adherence); details: permethrin trapped in porous carrier (Silcron G100) in barrier/transfer agent composition

SMILES: CCN(CC)C(=O)c1cccc(C)c1 [DEET]
- Amount of DEET remaining ([1]; 16 h): about 2 milligrams
- Time after application at which half of the DEET remained ([1]; thin film ca 10 microns on glass slide): 16 h
- Time until DEET was fully evaporated from the film ([1]; thin film ca 10 microns smeared on glass slide, initial film weight 0.0231 grams, time after application): approximately 36 hours
- Weight at which the film leveled off ([1]; when the DEET was fully evaporated, initial film weight 0.0231 grams): 0.019 grams

SMILES: CC1(C)C(C=C(Cl)Cl)C1C(=O)OCc1cccc(Oc2ccccc2)c1 (centres unmarked) [permethrin]
- Activity duration of permethrin in the formulation [2]: significantly prolonged
